In patent publication US20180245061A1, “Modified Heterocyclase” (THE UNIVERSITY COURT OF THE UNIVERSITY OF ABERDEEN, priority 2014, published 2018):

What was measured:
[1] = target: Lyngbya sp. LynD heterocyclase (SEQ ID NO: 1) variant E423R; test: ITC nucleotide binding (ATP/AMP) to LynD E423R; parameters: species or system Lyngbya sp. PCC 8106; settings: 20° C., pH 7.4, 5 mM MgCl2
Experimental: (§1) Codon optimized full-length LynD (Lyngbya sp. PCC 8106) with an N-terminal TEV protease-cleavable His6-tag was purchased from DNA2.0 in the pJexpress411 plasmid. The protein was expressed in Escherichia coli BL21 (DE3) grown on auto-induction medium {Studier, 2005, Protein expression and purification, 41, 207-234} for 48 h at 20° C. Cells were harvested by centrifugation at 4,000×g, 4° C. for 15 min and re-suspended in lysis buffer (500 mM NaCl, 20 mM Tris pH 8.0, 20 mM imidazole and 3 mM β-mercaptoethanol (BME)) with the addition of complete EDTA-free protease inhibitor tablets (Roche) and 0.4 mg DNase g^−1 wet cells (Sigma). Cells were lysed by passage through a cell disruptor at 30 kPSI (Constant Systems Ltd) and the lysate was cleared by centrifugation at 40,000×g, 4° C. for 20 min. The cleared lysate was applied to a Nickel Sepharose 6 Fast Flow (GE Healthcare) column pre-washed with lysis buffer and protein eluted with 250 mM imidazole. The protein was then passed over a desalting column (Desalt 16/10, GE Healthcare) in 100 mM NaCl, 20 mM Tris pH 8.0, 20 mM imidazole, 3 mM BME. Tobacco etch virus (TEV) protease was added to the protein at a mass-to-mass ratio of 1:10 and the protein digested for 2 h at 20° C. to remove the Hiss-tag. However, removal of the Hiss-tag was not essential for activity and so less vigorous methods for purification may also be used. […]

[2] = target: Lyngbya sp. LynD heterocyclase (SEQ ID NO: 1) variant K409E; test: ITC nucleotide binding (ATP/AMP) to LynD K409E; parameters: species or system Lyngbya sp. PCC 8106; settings: 20° C., pH 7.4, 5 mM MgCl2
Experimental: as §1

[3] = target: Lyngbya sp. LynD heterocyclase, wild type, SEQ ID NO: 1; test: ITC nucleotide binding (ATP/AMP) to LynD; parameters: species or system Lyngbya sp. PCC 8106; settings: 20° C., pH 7.4, 5 mM MgCl2, one-site model, stoichiometry set to 1, read-out: Nucleotide KD (ATP)
Experimental: as §1

[4] = target: Lyngbya sp. LynD heterocyclase (SEQ ID NO: 1) variant R636E; test: ITC nucleotide binding (ATP/AMP) to LynD R636E; parameters: species or system Lyngbya sp. PCC 8106; settings: 20° C., pH 7.4, 5 mM MgCl2
Experimental: as §1

[5] = target: Lyngbya sp. LynD heterocyclase (SEQ ID NO: 1) variant K409A; test: ITC nucleotide binding (ATP/AMP) to LynD K409A; parameters: species or system Lyngbya sp. PCC 8106; settings: 20° C., pH 7.4, 5 mM MgCl2
Experimental: as §1

[6] = target: Lyngbya sp. LynD heterocyclase (SEQ ID NO: 1) variant R427E; test: ITC nucleotide binding (ATP/AMP) to LynD R427E; parameters: species or system Lyngbya sp. PCC 8106; settings: 20° C., pH 7.4, 5 mM MgCl2
Experimental: as §1

PatE′ = test: Heterocyclization reaction with PatE′, MS analysis; type: biochemical; settings: 2 μM enzyme, 5 mM ATP, 5 mM MgCl2, 16 h at 37° C.; TABLE 2
Experimental: (§2) For all heterocyclization reactions, […] PatE′ (and variants,) was incubated with 2 μM enzyme in 150 mM NaCl, 10 mM HEPES pH 7.4, 1 mM TCEP, 5 mM ATP and 5 mM MgCl2 for 16 h at 37° C. Samples were analyzed by ESI or MALDI MS (LCT, Micromass or 4800 MALDI TOF/TOF Analyzer, ABSciex). For cis trans activation studies, 100 μM ITACITFCAYDG synthetic test peptide (Peptide Protein Research Ltd) was reacted with 5 μM heterocyclase enzyme in the presence and absence of 5.5 μM LAELSEEAL synthetic peptide, or 5.5 μM full-length PatE′4 leader peptide. The reaction was carried out in 150 mM NaCl, 10 mM HEPES pH 7.4, 1 mM TCEP, 5 mM ATP and 5 mM MgCl2 for 16 h at 37° C. and analyzed as above. Synthetic peptides were purchased from Peptide Protein Research Ltd.

PatE' L26R = target: T1, PatE' L26R; test: ITC, 20 C, one-site model with stoichiometry set to 1; LynD mutant in the cell, peptide in the syringe
T1 peptide: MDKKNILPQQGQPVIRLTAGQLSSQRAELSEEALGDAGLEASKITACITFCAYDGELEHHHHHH

[7] = target: T2, PatE' (precursor peptide PatE variant, 64 amino acids, full leader, single core peptide ITACITFC, C-terminal …); test: as above
T2 peptide: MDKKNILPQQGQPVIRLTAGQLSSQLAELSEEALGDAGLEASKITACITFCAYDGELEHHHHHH

PatE′ L26R = test: Heterocyclization reaction with PatE′ L26R; type: biochemical; settings: 2 μM enzyme, 5 mM ATP, 5 mM MgCl2, 16 h at 37° C.
Experimental: as §2

ITACITACAYDGE = test: Heterocyclization of leaderless substrate peptide ITACITACAYDGE by fused-MicD/PatD enzymes (LC-ESI-MS, MALDI-TOF-MS, HPLC-ESI-MS); type: biochemical; settings: 20-30 μM enzyme, 100-110 μM peptide, 5 mM ATP, 5 mM MgCl2, 27° C., 16 h
Experimental: The Reaction was performed in 100 mM Tris pH 8.0 supplemented with 150 mM NaCl, 5 mM ATP and 5 mM MgCl2 and contained 20 μM enzyme and 100 μM peptide. The mixture was incubated at 27° C. for 16 h. The unprocessed substrate has a molecular weight of 1329.5 Da.
Reaction was performed in 50 mM Bicine pH 9.0 supplemented with 150 mM NaCl, 5 mM ATP and 5 mM MgCl2 and contained 30 μM enzyme and 110 μM peptide. The mixture was incubated at 27° C. for 16 h. The unprocessed substrate has a molecular weight of 1219.5 Da.
Each reaction contained 100 mM Tris pH 8.0, 150 mM NaCl, 5 mM ATP and 5 mM MgCl2, 20 μM of the respective enzyme and 100 μM substrate peptide, and was incubated at 27° C. for 16 h. The unprocessed substrate has a molecular weight of 1329.5 Da.
Reaction was performed in 50 mM Bicine pH 9.0 supplemented with 150 mM NaCl, 5 mM ATP and 5 mM MgCl2 and contained 30 μM enzyme and 110 μM peptide. The mixture was incubated at 27° C. for 16 h. The unprocessed substrate has a molecular weight of 1329.5 Da.
Only 1 peak (9.254 min) indicates the reaction product is only one species. […] Multiple peaks of low intensity compared with m/z=1258.5 can be attributed to noise. Product was purified from the enzyme and ATP using size exclusion chromatography (Superdex 30, GE Healthcare) and exchanged into 50 mM Bicine pH 9.0, 500 mM NaCl and 5% DMSO.

Molecule: Nc1ncnc2c1ncn2[C@@H]1O[C@H](COP(=O)(O)OP(=O)(O)OP(=O)(O)O)[C@@H](O)[C@H]1O [ATP]
- Nucleotide KD (ATP) [1]: no binding
- Nucleotide KD (ATP) [2]: no binding
- Kd [3]: 50.2 µM
- Nucleotide KD (ATP) [4]: no binding
- Nucleotide KD (ATP) [5]: no binding
- Nucleotide KD (ATP) [6]: no binding

B1: LynD Y67D (enzyme)
chain: MQSTPLLQIQPHFHVEVIEPKQVYLLGEQANHALTGQLYCQILPLLNGQYTLEQIVEKLDGEVPPEDIDYVLERLAEKGYLTEAAPELSSEVAAFWSELGIAPPVAAEALRQPVTLTPVGNISEVTVAALTTALRDIGISVQTPTEAGSPTALNVVLTDDYLQPELAKINKQALESQQTWLLVKPVGSVLWLGPVFVPGKTGCWDCLAHRLRGNREVEASVLRQKQAQQQRNGQSGSVIGCLPTARATLPSTLQTGLQFAATEIAKWIVKYHVNATAPGTVFFPTLDGKIITLNHSILDLKSHILIKRSQCPTCGDPKILQHRGFEPLKLESRPKQFTSDGGHRGTTPEQTVQKYQHLISPVTGVVTELVRITDPANPLVHTYRAGHSFGSATSLRGLRNTLKHKSSGKGKTDSQSKASGLCEAVERYSGIFQGDEPRKRATLAELGDLAIHPEQCLCFSDGQYANRETLNEQATVAHDWIPQRFDASQAIEWTPVWSLTEQTHKYLPTALCYYHYPLPPEHRFARGDSNGNAAGNTLEEAILQGFMELVERDGVALWWYNRLRRPAVDLGSFNEPYFVQLQQFYRENDRDLWVLDLTADLGIPAFAGVSNRKTGSSERLILGFGAHLDPTIAILRAVTEVNQIGLELDKVPDENLKSDATDWLITEKLADHPYLLPDTTQPLKTAQDYPKRWSDDIYTDVMTCVNIAQQAGLETLVIDQTRPDIGLNVVKVTVPGMRHFWSRFGEGRLYDVPVKLGWLDEPLTEAQMNPTPMPF
- No. of heterocycles, peptide PatE′ (PatE′): 2
- Kd (PatE' L26R): 15.2 µM
- Kd [7]: 12.9 µM
- No. of heterocycles, peptide PatE′ L26R (PatE′ L26R): 2

B2: MicD-Q21-9GA: fused-MicD: leader from Q21, 9 GA repeats linker, KL, MicD (SEQ ID NO: 41) (protein)
chain: MSHHHHHHDYDENLYFQGSQLSSQLAELSEEALGDAGAGAGAGAGAGAGAGAGAKLMQSTPLLQIQPHFHVEVIEPKQVYLLGEQANYALTGQLYCQILPLLDGQHSREQIVEKLDGEVPSEYIDYVLDRLAEKGYLTEAAPELSSEVAAFWSELGIAPPVAAEALRQSVTLTPVGNISEVTVAALTTALRDIGISVQTPTEAGSPTALNVVLTDDYLQPELAKINKQALESQQTWLLVKPVGSVLWLGPVFVPGKTGCWDCLAHRLRGNREVEASVLQQKQAQQQRNGQSGSVIGCLPTARATLPSTLQTGLQFAATEIAKWIVKHHVKATAPGTVFFPTLDGKIITFNHTVIDLKSHVLVRRSQCPSCGDRQILHRQGFEPVKLVSRRKHFTHDGGHRAFTPEQTVQKYQHLVSPITGVVTELVRLTDPANPLVHTYKAGHAFGSATTLRGLRNTLKYKSSGKGKTDIQSRASGLCEAIERYSGIFQGDEPRKRATLAELGDLALHPESLLYFSNTQYANREELNAQGSAAAYRWIPNRFDVSQAIDWTPVWSLTEQKHKYVPTAFCYYGYPLPEEQRFCKADSNGNAAGNTLEEAILQGFLELVERDSIAMWWYNRIRRPAVDLSTFDEPYFVDLQQFYQQQNRELWVLDVTADLGIPAFAGFSRRTVGTSERISIGFGAHLDPTIAILRALTEVSQVGLELDKIPDDKLDGESKDWMLNVTVENHPWLAPDPSVPMKTASDYPKRWSDDIHTDVMNCVKTAQTAGLEVMVLDQTRPDIGLNVVKVIIPGMRTFWTRFGQGRLYDIPVKLGWLDAPLAEEELNQTNIPF
modifications: Modified heterocyclase MicroD_Q21_9GA
- heterocyclized species produced from ITACITACAYDGE (ITACITACAYDGE): 4
- heterocyclized species produced from ITACITACAYDGE (ITACITACAYDGE; listed as MicD-Q21-9G): only a single four heterocycle species
